This note sets out measurements from patent publication US8637501B2, “Azinone-substituted azepino[b]indole and pyrido-pyrrolo-azepine MCH-1 antagonists, methods of making, and use thereof” (Albany Molecular Research, Inc., priority 2009, dated 2014).

One series concerns the target human MCH-1 receptor (Homo sapiens (Human), UniProt Q99705). As to the kind of experiment: Binding Assay for Human Melanin-Concentrating Hormone (MCH-1) Receptor. The conditions noted are these: radioligand displacement, membranes from CHO-K1 cells expressing human MCH-1 receptor; Ki from IC50 by Cheng Prusoff equation; read-out: MCH1 Ki. A digest of the protocol: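 Membranes from CHO-K1 cells stably expressing human MCH-1 incubated 60 min at 25 °C with 1.4 nM tritiated indazolyl-pyridinone radioligand in 50 mM Tris-HCl pH 7.4. Bound counts by filtration and scintillation; IC50 and nH by Hill fit, Ki by Cheng–Prusoff.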

A word on the Ki: it is the dissociation constant of the complex between target and ligand, obtained from inhibition or displacement. In general, melting point refers to the temperature, or range, at which the solid turns liquid.

Chain of human MCH-1 receptor (Q99705 whole entry): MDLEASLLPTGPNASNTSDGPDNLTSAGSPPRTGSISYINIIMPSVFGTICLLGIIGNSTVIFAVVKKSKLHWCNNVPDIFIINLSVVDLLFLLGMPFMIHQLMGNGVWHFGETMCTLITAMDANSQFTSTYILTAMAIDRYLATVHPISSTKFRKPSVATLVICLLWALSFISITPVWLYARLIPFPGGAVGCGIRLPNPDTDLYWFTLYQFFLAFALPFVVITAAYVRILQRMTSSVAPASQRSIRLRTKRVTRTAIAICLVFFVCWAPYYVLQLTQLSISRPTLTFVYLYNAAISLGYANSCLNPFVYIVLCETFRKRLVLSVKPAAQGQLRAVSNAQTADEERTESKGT

Compound `Cl.Cn1c2c(c3ccc(-n4ccc(-c5ccc(C(F)(F)F)nc5)cc4=O)nc31)CNCCC2` [Example 89, 1-(10-Methyl-5,6,7,8,9,10-hexahydropyrido[3′,2′:4,5]pyrrolo[3,2-c]azepin-2-yl)-4-(6-(trifluoromethyl)pyridin-3-yl)pyridin-2(1H)-one hydrochloride] returned a melting point of 308 to 312 °C. For the same compound, on human MCH-1 receptor, the Ki is 15 nM.

With `Cl.Cn1c2c(c3ccc(-n4ccc(OCc5ccccc5)cc4=O)nc31)CNCCC2` [Example 90, 4-(Benzyloxy)-1-(10-methyl-5,6,7,8,9,10-hexahydropyrido[3′,2′:4,5]pyrrolo[3,2-c]azepin-2-yl)pyridin-2(1H)-one hydrochloride], the melting point lay in the range of 328 to 332 °C. Also, on human MCH-1 receptor, the Ki is 6.4 nM.

Compound `Cl.Cn1c2c(c3ccc(-n4ccc(OCc5ncc(F)cc5F)cc4=O)cc31)CCNCC2` [Example 102, 4-((3,5-Difluoropyridin-2-yl)methoxy)-1-(6-methyl-1,2,3,4,5,6-hexahydroazepino[4,5-b]indol-8-yl)pyridin-2(1H)-one hydrochloride] registered a melting point of 215 to 225 °C. In addition, on human MCH-1 receptor, the inhibition constant Ki was 22 nM.

In the case of `Cl.Cn1c2c(c3ccc(-n4ccc(OCc5ncc(F)cc5F)cc4=O)cc31)CNCCC2` [Example 106, 4-((3,5-Difluoropyridin-2-yl)methoxy)-1-(6-methyl-1,2,3,4,5,6-hexahydroazepino[4,3-b]indol-8-yl)pyridin-2(1H)-one hydrochloride], the melting point lay within 180 to 190 °C. On human MCH-1 receptor, the Ki was 18 nM.
